Experimental data taken from patent US10675355B2, “VAR2CSA-drug conjugates” (priority 2013, dated 2020).

System: Karpas 299 human T cell lymphoma tumor
Experiment: Karpas 299 xenograft efficacy study
Format: in vivo, mice
Details: IV q2dx3: VAR2-Compound O 12, VAR2 12, Compound 886 0.312 mg/kg
Method: Female C.B-17/IcrHsd-Prkdcscid mice (Harlan Laboratories) were implanted subcutaneously in the back with the Karpas 299 human T cell lymphoma tumor cell line. Karpas 299 was established from the peripheral blood of a person with T cell non-Hodgkin's lymphoma in 1986; now classed as CD30+ anaplastic large cell lymphoma (ALCL). The lab stocks were mycoplasma negative. […] The mean tumor volume on treatment day (day 21) was greater than 150 mm^3. Test articles were administered intravenously on Day 1, 3, and 6 (total of three injections) at the doses indicated in the study grouping table. Body weights and tumor volumes were measured every Monday, Wednesday, and Friday. Animals remained on study until their tumors reached 800 mm^3 in size or they otherwise required euthanasia due to achieving a humane endpoint.

CN[C@H](C(=O)N[C@H](C(=O)N(C)[C@H](/C=C(\C)C(=O)NS(=O)(=O)c1ccc(N)cc1)C(C)C)C(C)(C)C)C(C)(C)c1ccccc1 [Compound 886, (S,E)-N-(4-Aminophenylsulfonyl)-2,5-dimethyl-4-((S)—N,3,3-trimethyl-2-((S)-3-methyl-2-(methylamino)-3-phenylbutanamido)butanamido)hex-2-enamide]
tumor volume, two-way ANOVA Bonferroni posttests (VAR2 versus, Study Day 21): ns (P > 0.05 = ns (not significant)) | tumor volume, two-way ANOVA Bonferroni posttests (VAR2 versus, Study Day 23): ns (P > 0.05 = ns (not significant)) | tumor volume, two-way ANOVA Bonferroni posttests (VAR2 versus, Study Day 26): ns (P > 0.05 = ns (not significant)) | tumor volume, two-way ANOVA Bonferroni posttests (VAR2 versus, Study Day 28): * (P < 0.05 = *) | tumor volume, two-way ANOVA Bonferroni posttests (VAR2 versus, Study Day 30): ** (P < 0.01 = **) | tumor volume, two-way ANOVA Bonferroni posttests (Vehicle versus, Study Day 21): ns (P > 0.05 = ns (not significant)) | tumor volume, two-way ANOVA Bonferroni posttests (Vehicle versus, Study Day 23): ns (P > 0.05 = ns (not significant)) | tumor volume, two-way ANOVA Bonferroni posttests (Vehicle versus, Study Day 26): * (P < 0.05 = *) | tumor volume, two-way ANOVA Bonferroni posttests (Vehicle versus, Study Day 28): *** (P < 0.001 = ***) | tumor volume, two-way ANOVA Bonferroni posttests (Vehicle versus, Study Day 30): *** (P < 0.001 = ***)
